Test results: PubChem BioAssay AID1963961 (Molecular Pharmacology Branch, DTP, NCI, 2024)
pIC50: −log10 of the molar value.

Test system: K98450-129-R-PDC multicell spheroids, viability
Test: Anticancer human tumor K98450-129-R-PDC patient-derived colon adenocarcinoma cell line growth inhibition [PI3K]
Conditions: for pIC50: curve of first compound; for viability, T/C: stronger effect = lower value
Source text: Combinatorial screen of targeted agents with the PI3K inhibitors inavolisib, alpelisib, duvelisib, and copanlisib in multi-cell type tumor spheroids
A high-throughput screen of multi-cell type tumor spheroids was designed to identify active combinations of targeted small molecules and PI3K pathway inhibitors. Complex spheroids include a stromal component modeled by human endothelial cells (HUVEC) and fibroblasts modeled by human mesenchymal stem cells (MSCs). The concentration ranges selected for each drug and investigational agent were based upon clinically achievable concentrations if the clinical Cmax of the agent was known.
Compounds. The drugs and investigational agents: inavolisib (NSC800729), alpelisib (NSC765974), duvelisib (NSC772469), copanlisib (NSC816437), ipatasertib (NSC767898), afuresertib (NSC778305), talazoparib (NSC767125), sapanisertib (NSC764658), selumetinib (NSC741078), tovorafenib (DAY101, NSC766906), vemurafenib (NSC761431), ravoxertinib (NSC781343), sotorasib (NSC818433), MRTX1133 (NSC 836407), abemaciclib (NSC 768073), palbociclib (NSC758247), venetoclax (NSC 766270), SY5609 (NSC837396), enzalutamide (NSC755605), and darolutamide (NSC825331), were obtained from the National Cancer Institute (NCI) Developmental Therapeutics Program Chemical Repository. The FDA-approved anticancer drug set is available from the NCI Developmental Therapeutics Program. […] The stock solutions were prepared in dimethyl sulfoxide (DMSO, Sigma-Aldrich, St. Louis, MO, cat. D2650) at 800-fold the tested concentration and stored at -70 degrees C prior to their use. All drugs and investigational agents were tested over a range starting from a high concentration at or near the clinical Cmax and decreasing in half-log increments. If the clinical Cmax for an agent had not been determined, the highest concentration tested was 10 microM.
Cell Culture. All cells were maintained in an incubator at 37 degrees C and 5% CO2 with 95% humidity. The PDC lines were cultured according to standard operating procedures established by the NCI PDMR (https://pdmr.cancer.gov/sops/default.htm). All PDCs were thawed and cultured in Matrigel-coated flasks prepared with a working solution of 1X Ham's F-12 nutrient mix, without supplementation (Invitrogen, Waltham, MA, cat. 11765054), 100 U/mL penicillin-streptomycin (Invitrogen, cat. 15140122), and 2.5% Matrigel (Corning Inc., Corning, NY, cat. 354248) for the first three passages. The 354836-022-R-J1-PDC, 475296-252-R-J1-PDC, and 997726-040-R-J2-PDC lines were cultured in 6A media, which includes advanced DMEM/F-12 (Thermo Fisher Scientific, cat. 12634028), 10 mM HEPES (Thermo Fisher Scientific, cat. 15630080), 1X GlutaMAX supplement (Thermo Fisher Scientific, cat. 35050061), 0.1 mg/mL primocin (InvivoGen, San Diego, CA, cat. ant-pm-2), 10% defined fetal bovine serum, heat inactivated (HyClone Laboratories Inc., Logan, UT, cat. SH30070.03HI), 50% L-WRN conditioned media (ATCC, cat. CRL-3276), 1.25 mM N-Acetyl-L-cysteine (Sigma-Aldrich, cat. A9165), 10 mM nicotinamide (Sigma-Aldrich, cat. N0636), 1X B-27 supplement (Thermo Fisher Scientific, cat. 17504044), 1X N-2 supplement (Thermo Fisher Scientific, cat. 17502048), and 10 microM Y-27632 dihydrochloride (Tocris Bioscience, Bristol, United Kingdom, cat. 1254). The 624824-186-R-J2-PDC line was cultured in 6C/Colon 1B media, which includes all 6A media components plus 50 ng/mL human EGF recombinant protein (Thermo Fisher Scientific, cat. PHG0311). […]

[1] = second compound 0.0316 µM, first compound 0.0316 µM
[2] = second compound 0.0316 µM, first compound 0.1 µM
[3] = second compound 0.1 µM, first compound 0.0316 µM
[4] = second compound 0.1 µM, first compound 0.1 µM
[5] = second compound 0.316 µM, first compound 0.0316 µM
[6] = second compound 0.316 µM, first compound 0.1 µM
[7] = second compound 1 µM, first compound 0.0316 µM
[8] = second compound 1 µM, first compound 0.1 µM
[9] = second compound 3.16 µM, first compound 0.0316 µM
[10] = second compound 3.16 µM, first compound 0.1 µM
[11] = second compound 10 µM, first compound 0.0316 µM
[12] = second compound 10 µM, first compound 0.1 µM
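Note: spheroids exposed to agents for seven days before read-out.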

Cn1ncnc1[C@H]1c2n[nH]c(=O)c3cc(F)cc(c23)N[C@@H]1c1ccc(F)cc1 + CC(Nc1ncnc2nc[nH]c12)c1cc2cccc(Cl)c2c(=O)n1-c1ccccc1
pIC50 (second compound 0.0316 µM): < 7.00
pIC50 (second compound 0.1 µM): < 7.00
pIC50 (second compound 0.316 µM): < 7.00
pIC50 (second compound 1 µM): < 7.00
pIC50 (second compound 3.16 µM): < 7.00
pIC50 (second compound 10 µM): < 7.00
viability, T/C (second compound 0.0316 µM, first compound 0.000316 µM): 108%
viability, T/C (second compound 0.0316 µM, first compound 0.001 µM): 118%
viability, T/C (second compound 0.0316 µM, first compound 0.00316 µM): 111%
viability, T/C (second compound 0.0316 µM, first compound 0.01 µM): 111%
viability, T/C [1]: 97.9%
viability, T/C [2]: 87.2%
viability, T/C (second compound 0.1 µM, first compound 0.000316 µM): 110%
viability, T/C (second compound 0.1 µM, first compound 0.001 µM): 106%
viability, T/C (second compound 0.1 µM, first compound 0.00316 µM): 97.5%
viability, T/C (second compound 0.1 µM, first compound 0.01 µM): 107%
viability, T/C [3]: 104%
viability, T/C [4]: 114%
viability, T/C (second compound 0.316 µM, first compound 0.000316 µM): 109%
viability, T/C (second compound 0.316 µM, first compound 0.001 µM): 97.5%
viability, T/C (second compound 0.316 µM, first compound 0.00316 µM): 112%
viability, T/C (second compound 0.316 µM, first compound 0.01 µM): 98.3%
viability, T/C [5]: 108%
viability, T/C [6]: 85.5%
viability, T/C (second compound 1 µM, first compound 0.000316 µM): 100%
viability, T/C (second compound 1 µM, first compound 0.001 µM): 97.5%
viability, T/C (second compound 1 µM, first compound 0.00316 µM): 93.8%
viability, T/C (second compound 1 µM, first compound 0.01 µM): 83.6%
viability, T/C [7]: 94.5%
viability, T/C [8]: 95.8%
viability, T/C (second compound 3.16 µM, first compound 0.000316 µM): 103%
viability, T/C (second compound 3.16 µM, first compound 0.001 µM): 100%
viability, T/C (second compound 3.16 µM, first compound 0.00316 µM): 99.3%
viability, T/C (second compound 3.16 µM, first compound 0.01 µM): 104%
viability, T/C [9]: 102%
viability, T/C [10]: 88%
viability, T/C (second compound 10 µM, first compound 0.000316 µM): 86.5%
viability, T/C (second compound 10 µM, first compound 0.001 µM): 120%
viability, T/C (second compound 10 µM, first compound 0.00316 µM): 88.2%
viability, T/C (second compound 10 µM, first compound 0.01 µM): 87.8%
viability, T/C [11]: 98.3%
viability, T/C [12]: 91.8%

CC1(C)CCC(CN2CCN(c3ccc(C(=O)NS(=O)(=O)c4ccc(NCC5CCOCC5)c([N+](=O)[O-])c4)c(Oc4cnc5[nH]ccc5c4)c3)CC2)=C(c2ccc(Cl)cc2)C1 + CC(Nc1ncnc2nc[nH]c12)c1cc2cccc(Cl)c2c(=O)n1-c1ccccc1
pIC50 (second compound 0.0316 µM): 5.28
pIC50 (second compound 0.1 µM): 5.25
pIC50 (second compound 0.316 µM): 5.27
pIC50 (second compound 1 µM): 5.28
pIC50 (second compound 3.16 µM): 5.26
pIC50 (second compound 10 µM): 5.29
viability, T/C [1]: 96.2%
viability, T/C [2]: 94.7%
viability, T/C (second compound 0.0316 µM, first compound 0.316 µM): 96.2%
viability, T/C (second compound 0.0316 µM, first compound 1 µM): 118%
viability, T/C (second compound 0.0316 µM, first compound 3.16 µM): 84.8%
viability, T/C (second compound 0.0316 µM, first compound 10 µM): 6.25%
viability, T/C [3]: 100%
viability, T/C [4]: 104%
viability, T/C (second compound 0.1 µM, first compound 0.316 µM): 105%
viability, T/C (second compound 0.1 µM, first compound 1 µM): 100%
viability, T/C (second compound 0.1 µM, first compound 3.16 µM): 97.4%
viability, T/C (second compound 0.1 µM, first compound 10 µM): 3.46%
viability, T/C [5]: 135%
viability, T/C [6]: 104%
viability, T/C (second compound 0.316 µM, first compound 0.316 µM): 94.9%
viability, T/C (second compound 0.316 µM, first compound 1 µM): 98.6%
viability, T/C (second compound 0.316 µM, first compound 3.16 µM): 94.4%
viability, T/C (second compound 0.316 µM, first compound 10 µM): 3.48%
viability, T/C [7]: 87.8%
viability, T/C [8]: 116%
viability, T/C (second compound 1 µM, first compound 0.316 µM): 89%
viability, T/C (second compound 1 µM, first compound 1 µM): 88.5%
viability, T/C (second compound 1 µM, first compound 3.16 µM): 87.5%
viability, T/C (second compound 1 µM, first compound 10 µM): 3.81%
viability, T/C [9]: 85.8%
viability, T/C [10]: 105%
viability, T/C (second compound 3.16 µM, first compound 0.316 µM): 90.4%
viability, T/C (second compound 3.16 µM, first compound 1 µM): 86.1%
viability, T/C (second compound 3.16 µM, first compound 3.16 µM): 95.8%
viability, T/C (second compound 3.16 µM, first compound 10 µM): 3.31%
viability, T/C [11]: 86.4%
viability, T/C [12]: 87.6%
viability, T/C (second compound 10 µM, first compound 0.316 µM): 82.9%
viability, T/C (second compound 10 µM, first compound 1 µM): 75.3%
viability, T/C (second compound 10 µM, first compound 3.16 µM): 88.1%
viability, T/C (second compound 10 µM, first compound 10 µM): 3.12%
